{"source": "patent US20040198770A1", "about": "“Uses for l-tetrahydropalmatine” (PharmacoGenetics Limited, priority 2003, published 2004)", "assay_type_in_all_cases": "in vivo", "key": {"ICR mice [1]": {"test_system": "ICR mice", "assay": "Horizontal-wire test", "conditions": "Table 2, mice, 60 s", "protocol": "(§1) ICR mice of male sex, weighing 15.6-17.8 g were used, provided by Experimental Animal Centre of HKUST, housed in groups, given food and water ad libitum and maintained on a 12 hour light: 12 hour dark cycle. All of the experimental groups had 12 animals per group.\n(§2) For each experimental animal, administered orally 0.2 ml (pH 7.2) of respective solvent at concentrations as stated above for each group (or double-distilled water for normal control group) one hour before testing.\nMice are lifted by the tail and allowed to grasp a horizontally strung wire (1 mm diameter, 20 cm long and placed 20 cm above the table) with their forepaws and released (Bonetti E. P. et al., Psychopharmacology (Berl). 1982; 78(1): 8-18; PMID: 6292984). For each experimental animal, the number of falling onto the table in 60 seconds was determined.\nThere is no significant difference between same dosage l-THP and dl-THP groups."}, "ICR mice [2]": {"test_system": "ICR mice", "assay": "Elevated plus-maze test", "conditions": "mice", "protocol": "as §1, §2\nThe elevated plus-maze is made of 0.5 cm thick wood as a horizontal cross consisting of two open arms (25×5 cm) and two opposite arms (25×5 cm) enclosed by 10 cm high walls. The arms extend from a central platform having dimensions of 5×5 cm. The plus-maze is elevated to a height of 40 cm from the floor. The maze is put inside a box with dimensions of 30×30×50 cm. The mice are placed on the central platform of the maze facing a closed arm. The number of arm entries and the time spent in the open and closed arm are counted for 300 seconds (Pellow S. et al., “Anxiolytic and anxiogenic drug effects on exploratory activity in an elevated plus-maze: a novel test of anxiety in the rat”, Pharmacol Biochem Behav. 1986 March; 24(3): 525-9; PMID: 2871560). Arm entry was defined as one half body entered into the arm."}, "ICR mice [3]": {"test_system": "ICR mice", "assay": "Hole-board test", "conditions": "300 s", "protocol": "as §1, §2\nThe hole-board apparatus is a 0.5 cm thick walled wood arena of 60×60×30 cm, with four 5 cm equidistant 4 cm diameter holes spaced on the floor. The mice are placed on the centre of the arena and the number of head-dip on the hole and the number of rearing are counted during a 300 second test period (File S. E. et al., “The effects of triazolobenzo-diazepines in two animal tests of anxiety and in the holeboard.”, Br J Pharmacol. 1985 November; 86(3): 729-35; PMID: 2866006). After each trial, the floor of the apparatus was wiped and dried thoroughly with tissue to remove traces of the previous path."}}}
{"smiles": "COc1cc2c(cc1OC)C1Cc3ccc(OC)c(OC)c3CN1CC2", "note": "(racemic) [dl-THP, 5,8,18,13a-tetrahydro-2,3,9,10-tetramethoxy-6H-dibenzo [a,q] quinolizine, reference compound]", "values": [{"measurement": "Number of falling", "setting": "ICR mice [1]; oral 0.5 mg/kg", "value": "0.30 ± 0.48"}, {"measurement": "Number of falling", "setting": "ICR mice [1]; oral 1.0 mg/kg", "value": "0.50 ± 0.67"}, {"measurement": "Number of falling", "setting": "ICR mice [1]; oral 5.0 mg/kg", "value": "0.40 ± 0.49"}, {"measurement": "Number of falling", "setting": "ICR mice [1]; oral 10 mg/kg", "value": "0.80 ± 0.64"}, {"measurement": "Number of falling", "setting": "ICR mice [1]; oral 30 mg/kg", "value": "21.60 ± 8.72"}, {"measurement": "most medicinal dosage (time spent and percentage of open arm entry)", "setting": "ICR mice [2]; oral", "value": 5, "unit": "mg/kg"}, {"measurement": "Open arm entry %", "setting": "ICR mice [2]; oral 0.1 mg/kg, 300 s", "value": "30.58 ± 5.83", "unit": "%"}, {"measurement": "Open arm entry No.", "setting": "ICR mice [2]; oral 0.1 mg/kg, 300 s", "value": "8.77 ± 1.88"}, {"measurement": "Total no. of arm entries", "setting": "ICR mice [2]; oral 0.1 mg/kg, 300 s", "value": "28.92 ± 4.73"}, {"measurement": "Open arm entry %", "setting": "ICR mice [2]; oral 0.5 mg/kg, 300 s", "value": "43.13 ± 4.17", "unit": "%"}, {"measurement": "Open arm entry No.", "setting": "ICR mice [2]; oral 0.5 mg/kg, 300 s", "value": "13.15 ± 3.33"}, {"measurement": "Total no. of arm entries", "setting": "ICR mice [2]; oral 0.5 mg/kg, 300 s", "value": "30.25 ± 5.55"}, {"measurement": "Open arm Time spent", "setting": "ICR mice [2]; oral 0.5 mg/kg, 300 s test", "value": "80.42 ± 15.23"}, {"measurement": "Open arm time spent %", "setting": "ICR mice [2]; oral 0.5 mg/kg, 300 s test", "value": "29.25 ± 5.10", "unit": "%"}, {"measurement": "Open arm entry %", "setting": "ICR mice [2]; oral 1.0 mg/kg, 300 s", "value": "51.17 ± 5.48", "unit": "%"}, {"measurement": "Open arm entry No.", "setting": "ICR mice [2]; oral 1.0 mg/kg, 300 s", "value": "16.00 ± 3.13"}, {"measurement": "Total no. of arm entries", "setting": "ICR mice [2]; oral 1.0 mg/kg, 300 s", "value": "31.20 ± 4.16"}, {"measurement": "Open arm Time spent", "setting": "ICR mice [2]; oral 1.0 mg/kg, 300 s test", "value": "88.40 ± 17.37"}, {"measurement": "Open arm time spent %", "setting": "ICR mice [2]; oral 1.0 mg/kg, 300 s test", "value": "29.95 ± 5.31", "unit": "%"}, {"measurement": "hypnotic effect / inhibition of the nervous system", "setting": "ICR mice [2]; oral 5 mg/kg", "value": "does not induce a hypnotic effect or inhibit the nervous system"}, {"measurement": "Open arm entry %", "setting": "ICR mice [2]; oral 5.0 mg/kg, 300 s", "value": "50.21 ± 4.04", "unit": "%"}, {"measurement": "Open arm entry No.", "setting": "ICR mice [2]; oral 5.0 mg/kg, 300 s", "value": "15.23 ± 3.19"}, {"measurement": "Total no. of arm entries", "setting": "ICR mice [2]; oral 5.0 mg/kg, 300 s", "value": "30.15 ± 4.83"}, {"measurement": "Open arm Time spent", "setting": "ICR mice [2]; oral 5.0 mg/kg, 300 s test", "value": "95.00 ± 23.56"}, {"measurement": "Open arm time spent %", "setting": "ICR mice [2]; oral 5.0 mg/kg, 300 s test", "value": "32.79 ± 8.60", "unit": "%"}, {"measurement": "Head-dip No.", "setting": "ICR mice [3]; oral 0.1 mg/kg", "value": "13.42 ± 12.06"}, {"measurement": "Rearing No.", "setting": "ICR mice [3]; oral 0.1 mg/kg", "value": "22.17 ± 12.76"}, {"measurement": "Total No. (head-dip and rearing)", "setting": "ICR mice [3]; oral 0.1 mg/kg", "value": "35.58 ± 16.47"}, {"measurement": "Head-dip No.", "setting": "ICR mice [3]; oral 0.5 mg/kg", "value": "17.67 ± 11.14"}, {"measurement": "Rearing No.", "setting": "ICR mice [3]; oral 0.5 mg/kg", "value": "26.50 ± 10.06"}, {"measurement": "Total No. (head-dip and rearing)", "setting": "ICR mice [3]; oral 0.5 mg/kg", "value": "44.17 ± 13.53"}, {"measurement": "Head-dip No.", "setting": "ICR mice [3]; oral 1.0 mg/kg", "value": "13.20 ± 10.64"}, {"measurement": "Rearing No.", "setting": "ICR mice [3]; oral 1.0 mg/kg", "value": "20.40 ± 15.74"}, {"measurement": "Total No. (head-dip and rearing)", "setting": "ICR mice [3]; oral 1.0 mg/kg", "value": "33.60 ± 20.37"}, {"measurement": "Head-dip No.", "setting": "ICR mice [3]; oral 5.0 mg/kg", "value": "11.08 ± 6.34"}, {"measurement": "Rearing No.", "setting": "ICR mice [3]; oral 5.0 mg/kg", "value": "26.39 ± 12.28"}, {"measurement": "Total No. (head-dip and rearing)", "setting": "ICR mice [3]; oral 5.0 mg/kg", "value": "37.46 ± 15.95"}]}
{"smiles": "CN1C(=O)CN=C(c2ccccc2)c2cc(Cl)ccc21", "note": "[DZ, Diazepam, reference compound]", "values": [{"measurement": "Closed arm entry %", "setting": "ICR mice [2]; oral 1.0 mg/kg, 300 s", "value": "44.58 ± 4.10", "unit": "%"}, {"measurement": "Closed arm entry No.", "setting": "ICR mice [2]; oral 1.0 mg/kg, 300 s", "value": "16.75 ± 3.26"}, {"measurement": "Total no. of arm entries", "setting": "ICR mice [2]; oral 1.0 mg/kg, 300 s", "value": "38.25 ± 7.06"}, {"measurement": "Closed arm Time spent", "setting": "ICR mice [2]; oral 1.0 mg/kg, 300 s test", "value": "159.29 ± 14.18"}, {"measurement": "Closed arm time spent %", "setting": "ICR mice [2]; oral 1.0 mg/kg, 300 s test", "value": "54.81 ± 4.53", "unit": "%"}, {"measurement": "Open arm time spent %", "setting": "ICR mice [2]; oral 1.0 mg/kg, 300 s test, 1 mg/kg", "value": "45.19 ± 4.53", "unit": "%"}, {"measurement": "Open arm entry %", "setting": "ICR mice [2]; oral 1.0 mg/kg, 300 s, 1 mg/kg", "value": "55.42 ± 4.10", "unit": "%"}, {"measurement": "Rearing No.", "setting": "ICR mice [3]; oral 1.0 mg/kg", "value": "26.38 ± 8.51"}, {"measurement": "Total No. (head-dip and rearing)", "setting": "ICR mice [3]; oral 1.0 mg/kg", "value": "42.00 ± 7.11"}]}
